This is an account of results in BindingDB's records for doi:10.1016/j.bmc.2020.115716 (Chemical Diversity Research Institute, 2020).

One assay can be described thus: Inhibition of HCV genotype 2a NS5A infected in Huh7 cells assessed as reduction in viral replication incubated 3 days and measured by bright Glo-luciferase reporter gene assay. A general note: In a reporter assay the amount or activity of a reporter protein is the signal.
What is called IC50 is the concentration that inhibits the measured activity by half. For the molecule `COC(=O)N[C@H](C(=O)N1CCC[C@H]1c1ncc(-c2ccc(C#CC#Cc3cnc([C@@H]4CCCN4C(=O)[C@H](NC(=O)OC)c4ccccc4)[nH]3)c(N(C)c3ccccc3)c2)[nH]1)C(C)C`, the IC50 was 11 pM.

Turning to `COC(=O)N[C@H](C(=O)N1CCC[C@H]1c1ncc(-c2ccc(C#CC#Cc3cnc([C@@H]4CCCN4C(=O)[C@H](NC(=O)OC)c4ccccc4)[nH]3)c(-c3cccc(F)c3F)c2)[nH]1)C(C)C`, the IC50 was 1 pM.

In the case of `COC(=O)N[C@H](C(=O)N1CCC[C@H]1c1ncc(-c2cc(C)c(C#CC#Cc3cnc([C@@H]4CCCN4C(=O)[C@H](NC(=O)OC)c4ccccc4)[nH]3)c(-c3ccccc3)c2)[nH]1)C(C)C`, the IC50 amounted to 3 pM.

On to `COC(=O)N[C@H](C(=O)N1CCC[C@H]1c1ncc(-c2ccc(C#CC#Cc3cnc([C@@H]4CCCN4C(=O)[C@H](NC(=O)OC)c4ccccc4)[nH]3)c(-c3cccc(C(C)(C)C)c3)c2)[nH]1)C(C)C`, for which the IC50 stood at 104 pM.

For `COC(=O)N[C@H](C(=O)N1CCC[C@H]1c1ncc(-c2ccc(C#CC#Cc3cnc([C@@H]4CCCN4C(=O)[C@H](NC(=O)OC)c4ccccc4)[nH]3)c(-c3ccc(N(C)C)cc3)c2)[nH]1)C(C)C`, the IC50 was 13 pM.

With `COC(=O)N[C@H](C(=O)N1CCC[C@H]1c1ncc(C#CC#Cc2ccc(-c3cnc([C@@H]4CCCN4C(=O)[C@H](NC(=O)OC)c4ccccc4)[nH]3)cc2)[nH]1)C(C)C`, the IC50 amounted to 7 pM.

A further assay can be described thus: Inhibition of HCV genotype 4a NS5A infected in Huh7 cells assessed as reduction in viral replication incubated 3 days and measured by bright Glo-luciferase reporter gene assay.
`COC(=O)N[C@H](C(=O)N1CCC[C@H]1c1ncc(-c2ccc(C#CC#Cc3cnc([C@@H]4CCCN4C(=O)[C@H](NC(=O)OC)c4ccccc4)[nH]3)c(N(C)c3ccccc3)c2)[nH]1)C(C)C`: the IC50 turned out to be 11 pM.

Take `COC(=O)N[C@H](C(=O)N1CCC[C@H]1c1ncc(-c2cc(C)c(C#CC#Cc3cnc([C@@H]4CCCN4C(=O)[C@H](NC(=O)OC)c4ccccc4)[nH]3)c(-c3ccccc3)c2)[nH]1)C(C)C`: the IC50 was 10 pM.

With `COC(=O)N[C@H](C(=O)N1CCC[C@H]1c1ncc(-c2ccc(C#CC#Cc3cnc([C@@H]4CCCN4C(=O)[C@H](NC(=O)OC)c4ccccc4)[nH]3)c(-c3cccc(C(C)(C)C)c3)c2)[nH]1)C(C)C`, the IC50 was 7 pM.

Regarding `COC(=O)N[C@H](C(=O)N1CCC[C@H]1c1ncc(-c2ccc(C#CC#Cc3cnc([C@@H]4CCCN4C(=O)[C@H](NC(=O)OC)c4ccccc4)[nH]3)c(-c3ccc(N(C)C)cc3)c2)[nH]1)C(C)C`, the IC50 worked out at 11 pM.

As to `COC(=O)N[C@H](C(=O)N1CCC[C@H]1c1ncc(C#CC#Cc2ccc(-c3cnc([C@@H]4CCCN4C(=O)[C@H](NC(=O)OC)c4ccccc4)[nH]3)cc2)[nH]1)C(C)C`, the IC50 stood at 12 pM.

Another assay in a line: Inhibition of HCV genotype 1b NS5A infected in Huh7 cells assessed as reduction in viral replication incubated 3 days and measured by Bright-Glo luciferase assay.
In general, EC50 refers to the concentration that produces a half-maximal response. For the molecule `COC(=O)N[C@H](C(=O)N1CCC[C@H]1c1ncc(C#CC#Cc2ccc(-c3cnc([C@@H]4CCCN4C(=O)[C@H](NC(=O)OC)c4ccccc4)[nH]3)cc2)[nH]1)C(C)C`, the EC50 stood at 6 pM.

The nature of another assay: Inhibition of HCV genotype 5a NS5A infected in Huh7 cells assessed as reduction in viral replication incubated 3 days and measured by bright Glo-luciferase reporter gene assay.
With `COC(=O)N[C@H](C(=O)N1CCC[C@H]1c1ncc(-c2ccc(C#CC#Cc3cnc([C@@H]4CCCN4C(=O)[C@H](NC(=O)OC)c4ccccc4)[nH]3)c(N(C)c3ccccc3)c2)[nH]1)C(C)C`, the IC50 amounted to 27 pM.

On to `COC(=O)N[C@H](C(=O)N1CCC[C@H]1c1ncc(-c2ccc(C#CC#Cc3cnc([C@@H]4CCCN4C(=O)[C@H](NC(=O)OC)c4ccccc4)[nH]3)c(-c3cccc(F)c3F)c2)[nH]1)C(C)C`, for which the IC50 was determined as 19 pM.

`COC(=O)N[C@H](C(=O)N1CCC[C@H]1c1ncc(-c2ccc(C#CC#Cc3cnc([C@@H]4CCCN4C(=O)[C@H](NC(=O)OC)c4ccccc4)[nH]3)c(-c3cccc(C(C)(C)C)c3)c2)[nH]1)C(C)C`: the concentration for half-maximal inhibition (IC50) was determined as 107 pM.

As for `COC(=O)N[C@H](C(=O)N1CCC[C@H]1c1ncc(-c2ccc(C#CC#Cc3cnc([C@@H]4CCCN4C(=O)[C@H](NC(=O)OC)c4ccccc4)[nH]3)c(-c3ccc(N(C)C)cc3)c2)[nH]1)C(C)C`, the IC50 came out at 52 pM.

Regarding `COC(=O)N[C@H](C(=O)N1CCC[C@H]1c1ncc(C#CC#Cc2ccc(-c3cnc([C@@H]4CCCN4C(=O)[C@H](NC(=O)OC)c4ccccc4)[nH]3)cc2)[nH]1)C(C)C`, the IC50 is 100 pM.

Another assay is described as follows: Inhibition of HCV genotype 1a NS5A infected in Huh7 cells assessed as reduction in viral replication incubated 3 days and measured by bright Glo-luciferase reporter gene assay.
On to `COC(=O)N[C@H](C(=O)N1CCC[C@H]1c1ncc(-c2ccc(C#CC#Cc3cnc([C@@H]4CCCN4C(=O)[C@H](NC(=O)OC)c4ccccc4)[nH]3)c(N(C)c3ccccc3)c2)[nH]1)C(C)C`, for which the IC50 came out at 72 pM.

Regarding `COC(=O)N[C@H](C(=O)N1CCC[C@H]1c1ncc(-c2ccc(C#CC#Cc3cnc([C@@H]4CCCN4C(=O)[C@H](NC(=O)OC)c4ccccc4)[nH]3)c(-c3cccc(F)c3F)c2)[nH]1)C(C)C`, the IC50 turned out to be 28 pM.

As to `COC(=O)N[C@H](C(=O)N1CCC[C@H]1c1ncc(-c2cc(C)c(C#CC#Cc3cnc([C@@H]4CCCN4C(=O)[C@H](NC(=O)OC)c4ccccc4)[nH]3)c(-c3ccccc3)c2)[nH]1)C(C)C`, the IC50 stood at 124 pM.

Turning to `COC(=O)N[C@H](C(=O)N1CCC[C@H]1c1ncc(-c2ccc(C#CC#Cc3cnc([C@@H]4CCCN4C(=O)[C@H](NC(=O)OC)c4ccccc4)[nH]3)c(-c3cccc(C(C)(C)C)c3)c2)[nH]1)C(C)C`, the IC50 came to 1070 pM.

Regarding `COC(=O)N[C@H](C(=O)N1CCC[C@H]1c1ncc(-c2ccc(C#CC#Cc3cnc([C@@H]4CCCN4C(=O)[C@H](NC(=O)OC)c4ccccc4)[nH]3)c(-c3ccc(N(C)C)cc3)c2)[nH]1)C(C)C`, the IC50 came out at 138 pM.

As to `COC(=O)N[C@H](C(=O)N1CCC[C@H]1c1ncc(C#CC#Cc2ccc(-c3cnc([C@@H]4CCCN4C(=O)[C@H](NC(=O)OC)c4ccccc4)[nH]3)cc2)[nH]1)C(C)C`, the IC50 amounted to 210 pM.

A short description of another assay: Inhibition of HCV genotype 3a NS5A infected in Huh7 cells assessed as reduction in viral replication incubated 3 days and measured by bright Glo-luciferase reporter gene assay.
For `COC(=O)N[C@H](C(=O)N1CCC[C@H]1c1ncc(-c2ccc(C#CC#Cc3cnc([C@@H]4CCCN4C(=O)[C@H](NC(=O)OC)c4ccccc4)[nH]3)c(N(C)c3ccccc3)c2)[nH]1)C(C)C`, the IC50 worked out at 35 pM.

Regarding `COC(=O)N[C@H](C(=O)N1CCC[C@H]1c1ncc(-c2ccc(C#CC#Cc3cnc([C@@H]4CCCN4C(=O)[C@H](NC(=O)OC)c4ccccc4)[nH]3)c(-c3cccc(F)c3F)c2)[nH]1)C(C)C`, the IC50 is 16 pM.

For the molecule `COC(=O)N[C@H](C(=O)N1CCC[C@H]1c1ncc(-c2cc(C)c(C#CC#Cc3cnc([C@@H]4CCCN4C(=O)[C@H](NC(=O)OC)c4ccccc4)[nH]3)c(-c3ccccc3)c2)[nH]1)C(C)C`, the IC50 was 26 pM.

Take `COC(=O)N[C@H](C(=O)N1CCC[C@H]1c1ncc(-c2ccc(C#CC#Cc3cnc([C@@H]4CCCN4C(=O)[C@H](NC(=O)OC)c4ccccc4)[nH]3)c(-c3cccc(C(C)(C)C)c3)c2)[nH]1)C(C)C`: the IC50 came out at 93 pM.

With `COC(=O)N[C@H](C(=O)N1CCC[C@H]1c1ncc(-c2ccc(C#CC#Cc3cnc([C@@H]4CCCN4C(=O)[C@H](NC(=O)OC)c4ccccc4)[nH]3)c(-c3ccc(N(C)C)cc3)c2)[nH]1)C(C)C`, the IC50 was 38 pM.

Regarding `COC(=O)N[C@H](C(=O)N1CCC[C@H]1c1ncc(C#CC#Cc2ccc(-c3cnc([C@@H]4CCCN4C(=O)[C@H](NC(=O)OC)c4ccccc4)[nH]3)cc2)[nH]1)C(C)C`, the half-maximal inhibitory concentration (IC50) came out at 629 pM.
